According to patent US20250114460A1, “NOVEL PLK1 DEGRADATION INDUCING COMPOUND” (UPPTHERA, INC., priority 2021, published 2025):

Target: T1, PLK1 (Homo sapiens, UniProt P53350)
T1 construct: endogenous in cells; host or cells: HeLa LgBit (Plk1-HiBit KI): HeLa stably expressing LgBit, with a CRISPR/Cas9 knock-in of HiBit at the endogenous PLK1 locus
Assay: Luciferase assay for PLK1 in HeLa LgBit (Plk1-HiBit KI) cell line
Assay type: cell-based
Details: 300 nM compound, luminescence after 9 hours
Method: 2. Luciferase Assay for PLK1
(1) Preparation and Culture of HeLa LgBit (Plk1-HiBit KI) Cell Line
A HeLa cell line in which the LgBit vector was transfected and expressed stably was prepared. Then, after constructing gRNA and donor to express the HiBit amino acid sequence behind the C-terminal of the Plk1 gene, which was inherent in the cell, it was inserted into the cell together with a vector capable of expressing CRISPR/Cas9. Only the cells in which the insertion was completed and knock-in had progressed were selected, sub-cultured and used.
(2) Treatment of Compounds of the Present Invention and Method of Luciferase Assay
In the case of HeLa LgBit (Plk1-HiBit KI), the compounds were treated after being released after thymidine block, and the process was as follows. Thymidine (Sigma-Aldrich Cat. No. T9250-5G) was completely dissolved in DW and used in the experiment. For thymidine block, the products were treated with 2 mM of thymidine and then incubated for 24 hours. For release and chemical treatment, the medium was suctioned and washed with 1×PBS. TrypLE™ was added and incubated in 37° C. CO2 incubator for 5 min. Cells neutralized by adding complete media were counted through a counter. For each well of a 96-well culture plate (SPL), 3.3×10^4 cells and a total medium volume of 150 μL were seeded and incubated in a CO2 incubator.
Each cell line was incubated in a CO2 incubator for 18 hours, and Endurazine was added to each well to make up 4% of the total volume. After adding the compound of the present invention in a 96-well white plate (SPL) to a concentration of 300 nM, the wavelength of the plate reader (BMG Labtech, CLARIOstar Plus) was set to […], and then the luminescence was tracked in real time.
In Table 2, Activity represents the ratio of the luminescense value of each Exemplary Compound treatment group to DMSO treatment group (+++: <0.3, ++<0.6, +<0.7).

T1 sequence (P53350 whole entry): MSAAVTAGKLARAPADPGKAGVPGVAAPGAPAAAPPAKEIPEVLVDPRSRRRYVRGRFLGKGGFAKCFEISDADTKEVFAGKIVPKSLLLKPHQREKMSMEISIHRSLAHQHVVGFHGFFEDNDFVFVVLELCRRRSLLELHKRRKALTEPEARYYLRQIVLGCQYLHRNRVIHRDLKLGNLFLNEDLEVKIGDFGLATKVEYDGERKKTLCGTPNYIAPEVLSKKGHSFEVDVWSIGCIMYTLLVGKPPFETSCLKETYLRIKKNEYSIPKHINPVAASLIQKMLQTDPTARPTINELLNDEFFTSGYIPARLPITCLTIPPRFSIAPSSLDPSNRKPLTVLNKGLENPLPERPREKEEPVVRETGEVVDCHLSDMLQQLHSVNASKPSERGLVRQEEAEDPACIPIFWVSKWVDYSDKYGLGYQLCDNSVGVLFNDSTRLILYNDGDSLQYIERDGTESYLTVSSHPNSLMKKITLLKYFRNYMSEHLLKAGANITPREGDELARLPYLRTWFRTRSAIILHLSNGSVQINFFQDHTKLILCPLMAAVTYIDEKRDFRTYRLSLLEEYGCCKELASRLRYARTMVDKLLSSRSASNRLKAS

Activity: ratio of the luminescense value of each Exemplary Compound treatment group to DMSO treatment group	Structure (SMILES)
+ (+<0.7)	COc1cc(C(=O)NC2CCCC(N(C)C3CCN(c4cccc5c4C(=O)N(C4CCC(=O)NC4=O)C5=O)CC3)C2)ccc1Nc1ncc2c(n1)N(C(C)C)CC(F)(F)C(=O)N2C (centres unmarked) [Compound 166, 4-((7,7-difluoro-9-isopropyl-5-methyl-6-oxo-6,7,8,9-tetrahydro-5H-pyrimido[4,5-b][1,4]diazepin-2-yl)amino)-N-(3-((1-(2-(2,6-dioxopiperidin-3-yl)-1,3-dioxoisoindolin-4-yl)piperidin-4-yl)(methyl)amino)cyclohexyl)-3-methoxybenzamide]
++ (++<0.6)	COc1cc(C(=O)NC2CCN(C[C@@H]3CCN(c4cccc5c4C(=O)N(C4CCC(=O)NC4=O)C5=O)C3)CC2)ccc1Nc1ncc2c(n1)N(C1CCCC1)CC(F)(F)C(=O)N2C (stereo partly drawn) [Compound 47, 4-((9-cyclopentyl-7,7-difluoro-5-methyl-6-oxo-6,7,8,9-tetrahydro-5H-pyrimido[4,5-b][1,4]diazepin-2-yl)amino)-N-(1-(((3S)-1-(2-(2,6-dioxopiperidin-3-yl)-1,3-dioxoisoindolin-4-yl)pyrrolidin-3-yl)methyl)piperidin-4-yl)-3-methoxybenzamide]
++ (++<0.6)	COc1cc(C(=O)NC2CC(N(C)CC3CCN(c4cccc5c4C(=O)N(C4CCC(=O)NC4=O)C5=O)CC3)C2)ccc1Nc1ncc2c(n1)N(C1CCCC1)CC(F)(F)C(=O)N2C (centres unmarked) [Compound 105, 4-((9-cyclopentyl-7,7-difluoro-5-methyl-6-oxo-6,7,8,9-tetrahydro-5H-pyrimido[4,5-b][1,4]diazepin-2-yl)amino)-N-(3-(((1-(2-(2,6-dioxopiperidin-3-yl)-1,3-dioxoisoindolin-4-yl)piperidin-4-yl)methyl)(methyl)amino)cyclobutyl)-3-methoxybenzamide]
++ (++<0.6)	COc1cc(C(=O)N[C@H]2CCN(C(=O)CCN3CCN(c4ccc5c(c4)CN(C4CCC(=O)NC4=O)C5=O)CC3)C2)c(F)cc1Nc1ncc2c(n1)N(C1CCCC1)CC(F)(F)C(=O)N2C (stereo partly drawn) [Compound 84, 4-((9-cyclopentyl-7,7-difluoro-5-methyl-6-oxo-6,7,8,9-tetrahydro-5H-pyrimido[4,5-b][1,4]diazepin-2-yl)amino)-N-((3S)-1-(3-(4-(2-(2,6-dioxopiperidin-3-yl)-1-oxoisoindolin-5-yl)piperazin-1-yl)propanoyl)pyrrolidin-3-yl)-2-fluoro-5-methoxybenzamide]
++ (++<0.6)	COc1cc(C(=O)N2CCN(CCCNc3ccc4c(c3)C(=O)N(C3CCC(=O)NC3=O)C4=O)CC2)c(F)cc1Nc1ncc2c(n1)N(C1CCCC1)CC(F)(F)C(=O)N2C (centres unmarked) [Compound 186, 5-((3-(4-(4-((9-cyclopentyl-7,7-difluoro-5-methyl-6-oxo-6,7,8,9-tetrahydro-5H-pyrimido[4,5-b][1,4]diazepin-2-yl)amino)-2-fluoro-5-methoxybenzoyl)piperazin-1-yl)propyl)amino)-2-(2,6-dioxopiperidin-3-yl)isoindoline-1,3-dione]
++ (++<0.6)	COc1cc(C(=O)N[C@H]2CC[C@H](N3CCN(CCNc4cccc5c4C(=O)N(C4CCC(=O)NC4=O)C5=O)CC3)CC2)c(F)cc1Nc1ncc2c(n1)N(C1CCCC1)CC(F)(F)C(=O)N2C (some centres unmarked) [Compound 196, 4-((9-cyclopentyl-7,7-difluoro-5-methyl-6-oxo-6,7,8,9-tetrahydro-5H-pyrimido[4,5-b][1,4]diazepin-2-yl)amino)-N-((1r,4r)-4-(4-(2-((2-(2,6-dioxopiperidin-3-yl)-1,3-dioxoisoindolin-4-yl)amino)ethyl)piperazin-1-yl)cyclohexyl)-2-fluoro-5-methoxybenzamide]
++ (++<0.6)	COc1cc(C(=O)NC2CCN(C(=O)CCN3CCN(c4cccc5c4C(=O)N(C4CCC(=O)NC4=O)C5=O)CC3)CC2)ccc1Nc1ncc2c(n1)N(C1CC1)CC(F)(F)C(=O)N2C (centres unmarked) [Compound 67, 4-((9-cyclopropyl-7,7-difluoro-5-methyl-6-oxo-6,7,8,9-tetrahydro-5H-pyrimido[4,5-b][1,4]diazepin-2-yl)amino)-N-(1-(3-(4-(2-(2,6-dioxopiperidin-3-yl)-1,3-dioxoisoindolin-4-yl)piperazin-1-yl)propanoyl)piperidin-4-yl)-3-methoxybenzamide]
++ (++<0.6)	C=CC[C@H]1CN(C2CCCC2)c2nc(Nc3ccc(C(=O)NC4CCN(C(=O)CCN5CCN(c6cccc7c6C(=O)N(C6CCC(=O)NC6=O)C7=O)CC5)CC4)cc3OC)ncc2N(C)C1=O (single isomer, unassigned) [Compound 70, 4-((7-allyl-9-cyclopentyl-5-methyl-6-oxo-6,7,8,9-tetrahydro-5H-pyrimido[4,5-b][1, 4]diazepin-2-yl)amino)-N-(1-(3-(4-(2-(2,6-dioxopiperidin-3-yl)-1,3-dioxoisoindolin-4-yl)piperazin-1-yl)propanoyl)piperidin-4-yl)-3-methoxybenzamide]
++ (++<0.6)	COc1cc(C(=O)NC2CCN(C(=O)CCN3CCN(c4ccc5c(c4)CN(C4CCC(=O)NC4=O)C5=O)CC3)CC2)c(F)cc1Nc1ncc2c(n1)N(C1CCCC1)CC(F)(F)C(=O)N2C (centres unmarked) [Compound 61, 4-((9-cyclopentyl-7,7-difluoro-5-methyl-6-oxo-6,7,8,9-tetrahydro-5H-pyrimido[4,5-b][1,4]diazepin-2-yl)amino)-N-(1-(3-(4-(2-(2,6-dioxopiperidin-3-yl)-1-oxoisoindolin-5-yl)piperazin-1-yl)propanoyl)piperidin-4-yl)-2-fluoro-5-methoxybenzamide]
++ (++<0.6)	COc1cc(C(=O)NC2CCN(C(=O)CCCC#Cc3cccc4c3C(=O)N(C3CCC(=O)NC3=O)C4=O)CC2)ccc1Nc1ncc2c(n1)N(C1CCCC1)CC(F)(F)C(=O)N2C (centres unmarked) [Compound 180, 4-((9-cyclopentyl-7,7-difluoro-5-methyl-6-oxo-6,7,8,9-tetrahydro-5H-pyrimido[4,5-b][1,4]diazepin-2-yl)amino)-N-(1-(6-(2-(2,6-dioxopiperidin-3-yl)-1,3-dioxoisoindolin-4-yl)hex-5-ynoyl)piperidin-4-yl)-3-methoxybenzamide]
++ (++<0.6)	COc1cc(C(=O)N2CCC(CN3CCN(c4cc5c(cc4F)C(=O)N(C4CCC(=O)NC4=O)C5=O)CC3)CC2)ccc1Nc1ncc2c(n1)N(C1CCCC1)CC(F)(F)C(=O)N2C (centres unmarked) [Compound 101, 5-(4-((1-(4-((9-cyclopentyl-7,7-difluoro-5-methyl-6-oxo-6,7,8,9-tetrahydro-5H-pyrimido[4,5-b][1,4]diazepin-2-yl)amino)-3-methoxybenzoyl)piperidin-4-yl)methyl)piperazin-1-yl)-2-(2,6-dioxopiperidin-3-yl)-6-fluoroisoindoline-1,3-dione]
++ (++<0.6)	COc1cc(C(=O)NCCOCCOCCOCCOCCOCCNc2cccc3c2C(=O)N(C2CCC(=O)NC2=O)C3=O)c(N2CCN(C)CC2)cc1Nc1ncc2c(n1)N(C1CCCC1)CC(F)(F)C(=O)N2C (centres unmarked) [Compound 225, 4-((9-cyclopentyl-7,7-difluoro-5-methyl-6-oxo-6,7,8,9-tetrahydro-5H-pyrimido[4,5-b][1,4]diazepin-2-yl)amino)-N-(17-((2-(2,6-dioxopiperidin-3-yl)-1,3-dioxoisoindolin-4-yl)amino)-3,6,9,12,15-pentaoxaheptadecyl)-5-methoxy-2-(4-methylpiperazin-1-yl)benzamide]
++ (++<0.6)	COc1cc(C(=O)NC2CCN(CCCc3cccc4c3C(=O)N(C3CCC(=O)NC3=O)C4=O)CC2)ccc1Nc1ncc2c(n1)N(C1CCCC1)CC(F)(F)C(=O)N2C (centres unmarked) [Compound 14, 4-((9-cyclopentyl-7,7-difluoro-5-methyl-6-oxo-6,7,8,9-tetrahydro-5H-pyrimido[4,5-b][1,4]diazepin-2-yl)amino)-N-(1-(3-(2-(2,6-dioxopiperidin-3-yl)-1,3-dioxoisoindolin-4-yl)propyl)piperidin-4-yl)-3-methoxybenzamide]
++ (++<0.6)	COc1cc(C(=O)NCCOCCOCCOCCOCCNc2cccc3c2C(=O)N(C2CCC(=O)NC2=O)C3=O)c(N2CCN(C)CC2)cc1Nc1ncc2c(n1)N(C1CCCC1)CC(F)(F)C(=O)N2C (centres unmarked) [Compound 224, 4-((9-cyclopentyl-7,7-difluoro-5-methyl-6-oxo-6,7,8,9-tetrahydro-5H-pyrimido[4,5-b][1,4]diazepin-2-yl)amino)-N-(14-((2-(2,6-dioxopiperidin-3-yl)-1,3-dioxoisoindolin-4-yl)amino)-3,6,9,12-tetraoxatetradecyl)-5-methoxy-2-(4-methylpiperazin-1-yl)benzamide]
